Experiment: xn = mol fraction of the nth substance listed
Conditions: 100 kPa, Liquid; for viscosity: Falling or rolling sphere viscometry; for speed of sound: Frequency=3 MHz, Single path-length method; for mass density: Vibrating tube method

CCn1cc[n+](C)c1.O=S(=O)([O-])C(F)(F)F [1-ethyl-3-methylimidazolium trifluoromethanesulfonate] + CC#N
Conditions	mass density [kg/m3]	speed of sound [m/s]	viscosity [mPa·s]
298.15 K, x1 = 0.1026	964.8	1309.2	0.85
298.15 K, x1 = 0.2053	1080.98	1337.4	1.88
298.15 K, x1 = 0.3044	1158.48	1360.9	2.99
298.15 K, x1 = 0.3948	1210.19	1377.9	4.51
298.15 K, x1 = 0.498	1256.19	1394.4	7.44
298.15 K, x1 = 0.595	1289.82	1408	10.9
298.15 K, x1 = 0.6936	1317.8	1418.6	15.92
298.15 K, x1 = 0.801	1342.54	1427.1	24.05
298.15 K, x1 = 0.9005	1362.36	1432.6	33.72
298.15 K, x1 = 1	1379.91	1436	45.67
303.15 K, x1 = 0.1026	959.72	1292	0.8
303.15 K, x1 = 0.2053	1076.24	1321.9	1.82
303.15 K, x1 = 0.3044	1153.77	1346.7	2.74
303.15 K, x1 = 0.3948	1205.75	1364.5	4.13
303.15 K, x1 = 0.498	1251.68	1381.5	6.64
303.15 K, x1 = 0.595	1285.38	1395.5	9.46
303.15 K, x1 = 0.6936	1313.46	1406.6	13.8
303.15 K, x1 = 0.801	1338.3	1415.2	20.32
303.15 K, x1 = 0.9005	1358.19	1421.3	27.94
303.15 K, x1 = 1	1375.71	1425.4	38.31
308.15 K, x1 = 0.1026	954.64	1274.9	0.75
308.15 K, x1 = 0.2053	1071.2	1306.5	1.65
308.15 K, x1 = 0.3044	1149.07	1332.5	2.52
308.15 K, x1 = 0.3948	1200.93	1351.3	3.76
308.15 K, x1 = 0.498	1247.19	1368.7	5.95
308.15 K, x1 = 0.595	1280.97	1383.2	8.41
308.15 K, x1 = 0.6936	1309.13	1394.7	12.08
308.15 K, x1 = 0.801	1334.18	1403.4	17.54
308.15 K, x1 = 0.9005	1354.05	1409.7	23.87
308.15 K, x1 = 1	1371.51	1414.3	32.38
313.15 K, x1 = 0.1026	949.54	1257.9	0.72
313.15 K, x1 = 0.2053	1066.32	1291.1	1.54
313.15 K, x1 = 0.3044	1144.37	1318.3	2.34
313.15 K, x1 = 0.3948	1196.39	1338.2	3.46
313.15 K, x1 = 0.498	1242.71	1356	5.37
313.15 K, x1 = 0.595	1276.68	1371.1	7.51
313.15 K, x1 = 0.6936	1304.82	1382.9	10.66
313.15 K, x1 = 0.801	1330.05	1391.6	15.27
313.15 K, x1 = 0.9005	1349.89	1398.1	20.58
313.15 K, x1 = 1	1367.36	1403	27.68
318.15 K, x1 = 0.1026	944.58	1241	0.68
318.15 K, x1 = 0.2053	1061.52	1275.8	1.42
318.15 K, x1 = 0.3044	1139.57	1304.3	2.16
318.15 K, x1 = 0.3948	1191.77	1325.1	3.17
318.15 K, x1 = 0.498	1238.2	1343.4	4.87
318.15 K, x1 = 0.595	1272.32	1359	6.75
318.15 K, x1 = 0.6936	1300.45	1371.3	9.46
318.15 K, x1 = 0.801	1325.89	1380.2	13.39
318.15 K, x1 = 0.9005	1345.74	1387.1	17.89
318.15 K, x1 = 1	1363.21	1392.7	23.86
323.15 K, x1 = 0.1026	939.47	1224.1	0.65
323.15 K, x1 = 0.2053	1056.45	1260.7	1.38
323.15 K, x1 = 0.3044	1134.77	1290.5	2.01
323.15 K, x1 = 0.3948	1187.31	1312.2	2.91
323.15 K, x1 = 0.498	1233.78	1330.9	4.43
323.15 K, x1 = 0.595	1267.96	1347.1	5.96
323.15 K, x1 = 0.6936	1296.17	1359.7	8.27
323.15 K, x1 = 0.801	1321.8	1368.6	11.66
323.15 K, x1 = 0.9005	1341.58	1375.7	15.49
323.15 K, x1 = 1	1359.07	1381.7	20.75
